Paper PMC8878468, “Image-Based Annotation of Chemogenomic Libraries for Phenotypic Screening” (Molecules, 2022)
Structures can show the parent of a compound that is named as a salt. Where two headings read alike, the source gives them in different places. Blank lines part the entries; values can stand above or below the compound they belong to.

What was measured:
U2OS cells [1] = assay: Multiplex high-content protocol (nuclei gating, tubulin, mitochondrial mass, membrane permeability); format: cell-based, human; conditions: for marked for tubulin effects while crossing no other phenotypic threshold / mitochondrial mass increase detected: threshold > 50%; for viability at 1 µM: Homo sapiens, read-out: healthy nuclei
Procedure: Using the CQ1 high-content confocal microscope (Yokogawa), cellular shape and fluorescence was measured before and 12 h as well as 24 h after compound treatment. All compounds were diluted in DMSO to a concentration of 10 mM.
The rather large spacing distance was used to create a robust readout, compensating potential plate variations and enabling automated screening without the use of autofocus. The overlap of the fluorescence emission spectra of the dyes was neglectable for all but the MitoTracker Red and Annexin V Alexa Fluor 680 (Supplementary Figure S9).
All images were analyzed using the CellPathfinder software (Yokogawa). Segmentation of cells was performed as described earlier. First, the cells are classified in Hoechst High Intensity Objects or Normal Intensity Objects (Supplementary Table S7). All normal gated cells are further classified in healthy, fragmented or pyknosed nuclei (Supplementary Table S7). The pyknosed cells are gated in mitotic or apoptotic cells using seven features for the cell body and five features for the cell nuclei according to their Annexin V staining intensity (Supplementary Table S7). All cells that were classified as including a healthy nucleus are further gated into three phenotypic classes. […] Growth rate was calculated against non-treated cells and cells treated with DMSO 0.1% [61].

HCT116-FUCCI cells [2] = tested on: HCT116-FUCCI cells; design: method as in per compound as in column reference of Table S3; conditions: literature annotation in Table S3; ref per compound as in Table S3; cited from earlier work
HCT116-FUCCI cells [3] = assay: FUCCI cell cycle assay with nuclear gating; format: cell-based, human; conditions: 10 µM, up to 70 h
Procedure: For generation of a stable cell line, including the florescent ubiquitination-base cell cycle indicator FUCCI, the plasmid-based transposon system Sleeping Beauty was used. Vector (pSBbi_Fucci) and the Transposase SB100X have been described previously. […] Two days after transfection, cells were selected over 10 days using puromycin (1 µg/mL) and cultivated afterwards for two more weeks in McCoys 5A plus L-Glutamine (Gibco) supplemented by 10% FBS (Gibco) and Penicillin/Streptomycin (Gibco).
Fluorescence and cellular shape were measured before and after compound treatment for 72 h every 12 h using the CQ1 high-content confocal microscope (Yokogawa). […]
Image analysis was performed using the CellPathfinder software (Yokogawa). Segmentation of cells was performed as described earlier. First, the cells are classified in Hoechst High Intensity Objects or Normal Intensity Objects (Supplementary Table S7). All normal gated cells are further classified in healthy, fragmented or pyknosed nuclei (Supplementary Table S7). […] Total cell count was normalized against total cell count of cells treated with 0.1% DMSO.

U2OS cells [4] = assay: cells; conditions: Homo sapiens
[5] = U2OS, 10 µM, 24 h, healthy nuclei only

SMILES: CCNc1cc(NC2CCC(O)CC2)nc(Nc2ccc3c(ccn3Cc3ccccc3)c2)n1 (stereo not shown) [CINK4]
marked for tubulin effects while crossing no other phenotypic threshold (U2OS cells [1]; U2OS, 1 µM): marked to have tubulin effects

SMILES: CCC1=C[C@@H]2CN(C1)Cc1c([nH]c3ccccc13)[C@@](C(=O)OC)(c1cc3c(cc1OC)N(C)[C@H]1[C@@](O)(C(=O)OC)[C@H](OC(C)=O)[C@]4(CC)C=CCN5CC[C@]31[C@@H]54)C2 [vinorelbine tartrate]
tubulin effect (U2OS cells [1]; [5]): increased tubulin effects

SMILES: COc1cc2c(Nc3ccc(NC(=O)c4ccccc4)cc3)ncnc2cc1OCCCN1CCOCC1 [ZM447439]
marked for tubulin effects while crossing no other phenotypic threshold (U2OS cells [1]; U2OS, 1 µM): marked to have tubulin effects

SMILES: CN[C@@H]1C[C@H]2O[C@@](C)([C@@H]1OC)n1c3ccccc3c3c4c(c5c6ccccc6n2c5c31)C(=O)NC4 [staurosporine]
mitochondrial mass, first analysis gating all cells independently of viability (U2OS cells [1]; 10 µM): increased mitochondrial mass
tubulin effect, first analysis gating all cells independently of viability (U2OS cells [1]; 10 µM): tubulin effects
healthy nuclei (healthy cells) (U2OS cells [1]; U2OS, 10 µM, 24 h): less than 50%
known cell cycle effect (HCT116-FUCCI cells [2]): dose-dependent cell

SMILES: CC(=O)Nc1cccc(-n2c(=O)n(C3CC3)c(=O)c3c(Nc4ccc(I)cc4F)n(C)c(=O)c(C)c32)c1 [trametinib]
change of FUCCI nuclei population in comparison to DMSO (HCT116-FUCCI cells [3]): increase in red nuclei

SMILES: CN1CCN(Cc2cc(NC(=O)c3ccc4c(c3)CN(c3ccccc3)CC4)cc(C(F)(F)F)c2)CC1 [DDR-TRK-1N]
healthy nuclei (U2OS cells [1]; U2OS, 1 µM, 24 h): ≤ 40%

SMILES: c1ccc2oc(-c3csc(C4CCN(Cc5nc6ncccc6[nH]5)CC4)n3)cc2c1 [BAY-179]
healthy nuclei (healthy cells) (U2OS cells [1]; U2OS, 10 µM, 24 h): over 80%
increase in mitochondrial mass in comparison to DMSO (U2OS cells [1]; [5]): over 60%

SMILES: CC[C@@H]1C(=O)N(C)c2cnc(Nc3ccc(C(=O)N[C@H]4CC[C@H](N5CCN(CC6CC6)CC5)CC4)cc3OC)nc2N1C(C)C [volasertib]
viability at 1 µM (U2OS cells [1]; U2OS, 1 µM, 24 h): ≤ 40%

SMILES: CN1CCN(Cc2ccc(Nc3ncc(Cl)c(Nc4ccccc4S(=O)(=O)N(C)C)n3)cc2)CC1 [TP0903]
viability at 1 µM (U2OS cells [1]; U2OS, 1 µM, 24 h): ≤ 40%
decrease of healthy nuclei count (U2OS cells [1]; U2OS, 1 µM): more than 60%

SMILES: C=CCn1c(=O)c2cnc(Nc3ccc(N4CCN(C)CC4)cc3)nc2n1-c1cccc(C(C)(C)O)n1 [adavosertib]
viability at 1 µM (U2OS cells [1]; U2OS, 1 µM, 24 h): ≤ 40%

SMILES: CC(C)Oc1ccccc1C(=O)Nc1ccccc1C(=O)Nc1cccc(S(=O)(=O)C(F)(F)F)c1 [ML-290]
mitochondrial mass increase detected (U2OS cells [1]; U2OS, 1 µM): mitochondrial mass increase

SMILES: Cc1ccc(NC(=O)Nc2cc(C(F)(F)F)ccc2F)cc1Nc1ccc2c(c1)NC(=O)/C2=C\c1ccc[nH]1 [GNF-5837]
viability at 1 µM (U2OS cells [1]; U2OS, 1 µM, 24 h): ≤ 40%
decrease of healthy nuclei count (U2OS cells [1]; U2OS, 1 µM): more than 60%

SMILES: COc1ccc(C[C@H](N)C(=O)N[C@H]2[C@@H](O)[C@H](n3cnc4c(N(C)C)ncnc43)O[C@@H]2CO)cc1 [puromycin]
mitochondrial mass, first analysis gating all cells independently of viability (U2OS cells [1]; 10 µM): increased mitochondrial mass
tubulin effect, first analysis gating all cells independently of viability (U2OS cells [1]; 10 µM): tubulin effects
healthy nuclei (healthy cells) (U2OS cells [1]; U2OS, 10 µM, 24 h): less than 50%
known cell cycle effect (HCT116-FUCCI cells [2]): effect on cell cycle

SMILES: CCOC(=O)Nc1cc(-c2ccc(C)c(NS(C)(=O)=O)c2)nn2c(C)nnc12 [Bromosporine]
marked for tubulin effects while crossing no other phenotypic threshold (U2OS cells [1]; U2OS, 1 µM): marked to have tubulin effects
known cell cycle effect (HCT116-FUCCI cells [2]): increase of cells in G1

SMILES: COc1cc(Nc2ccnc3ccc(Br)cc23)cc(OC)c1OC [SGC-GAK-1]
mitochondrial mass increase detected (U2OS cells [1]; U2OS, 1 µM): mitochondrial mass increase

SMILES: CCOc1cc(C(=O)N2CCC(N3CCN(C)CC3)CC2)ccc1Nc1ncc2c(n1)N(C1CCCC1)c1ccccc1C(=O)N2C [XMD17-109]
mitochondrial mass increase detected (U2OS cells [1]; U2OS, 1 µM): mitochondrial mass increase

SMILES: COc1cc2ncnc(Nc3ccc(F)c(Cl)c3)c2cc1NC(=O)/C=C/CN1CCCCC1 [PF-299804]
membrane permeabilization effects (U2OS cells [1]; U2OS, 1 µM, 24 h): more than 65%
marked for tubulin effects while crossing no other phenotypic threshold (U2OS cells [1]; U2OS, 1 µM): marked to have tubulin effects

IC50 (U2OS cells [4]; 14 h, read-out: IC 50 14 h): 62.7 nM
IC50 (U2OS cells [4]; 26 h, read-out: IC 50 26 h): 64.1 nM
IC50 (U2OS cells [4]; 42 h, read-out: IC 50 42 h): 58.7 nM
IC50 (U2OS cells [4]; 56 h, read-out: IC 50 56 h): 56.5 nM
SMILES: CNCc1ccc(-c2cc(-c3nc(-c4ccc(S(=O)(=O)C(C)C)cc4)cnc3N)on2)cc1 [berzosertib]
Hoechst High Intensity Objects (Hoechst intensity compared to normal nuclei) (U2OS cells [1]; U2OS, 1 µM): more than 50%

SMILES: Cc1[nH]c2ccccc2c1CCNCc1ccc(/C=C/C(=O)NO)cc1 [Panobinostat]
known cell cycle effect (HCT116-FUCCI cells [2]): G 1/S cell cy cle arrest
